# Target: T1, mAPXmEGFP (Glycine max, UniProt Q43758, K14D/E112K)
# T1 construct: gene apx1; monomeric K14D/E112K APX fused to mEGFP reporter; N-terminal His tag, pLEICS-45; pea, Pisum sativum, possible
# T1 sequence (Q43758 1-250 K14D/E112K): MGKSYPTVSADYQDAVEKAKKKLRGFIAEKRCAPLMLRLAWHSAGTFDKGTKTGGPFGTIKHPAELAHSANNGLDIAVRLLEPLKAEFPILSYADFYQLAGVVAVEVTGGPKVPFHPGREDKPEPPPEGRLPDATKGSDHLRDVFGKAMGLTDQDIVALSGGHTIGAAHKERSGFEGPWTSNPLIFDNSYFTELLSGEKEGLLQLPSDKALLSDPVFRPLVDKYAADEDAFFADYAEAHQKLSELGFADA
# Assay: time-correlated single-photon counting fluorescence lifetime titration of apo protein, […] binding model
# Settings: 37 °C, 10 mM potassium phosphate pH 7, 1 uM protein
smiles,measurement,value
C=CC1=C(C)C2=Cc3c(C=C)c(C)c4[n]3[Fe]([Cl])[n]3c(c(C)c(CCC(=O)O)c3=CC3=NC(=C4)C(C)=C3CCC(=O)O)=CC1=N2 [heme],Kd,22 nM
